Laboratory results taken from ChEMBL document CHEMBL1143624, “1-(5-Chloro-2-alkoxyphenyl)-3-(5-cyanopyrazin-2-yl)ureas [correction of cyanopyrazi] as potent and selective inhibitors of Chk1 kinase: synthesis, preliminary SAR, and biological activities” (J Med Chem, 2005).

Experiments:
[1] = biological target: T1, Serine/threonine-protein kinase Chk1 (Homo sapiens, UniProt O14757); experiment: Inhibition of Serine/threonine-protein kinase Chk1
T1 sequence (O14757 whole entry): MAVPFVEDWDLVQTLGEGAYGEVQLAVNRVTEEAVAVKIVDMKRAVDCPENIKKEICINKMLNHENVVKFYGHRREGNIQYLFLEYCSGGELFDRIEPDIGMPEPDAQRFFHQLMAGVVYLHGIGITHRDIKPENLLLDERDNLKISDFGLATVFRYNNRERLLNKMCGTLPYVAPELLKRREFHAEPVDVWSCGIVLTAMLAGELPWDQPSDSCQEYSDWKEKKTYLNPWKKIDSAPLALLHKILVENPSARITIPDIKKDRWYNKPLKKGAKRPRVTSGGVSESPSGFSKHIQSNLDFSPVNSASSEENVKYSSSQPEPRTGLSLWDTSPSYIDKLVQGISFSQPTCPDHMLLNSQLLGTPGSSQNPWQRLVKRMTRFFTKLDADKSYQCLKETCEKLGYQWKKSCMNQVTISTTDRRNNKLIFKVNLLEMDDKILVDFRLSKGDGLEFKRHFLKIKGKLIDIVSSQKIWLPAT

[2] = system: HeLa; experiment: Anti-proliferative activity against HeLa cells in the presence of 150 nM of doxorubicin; assay type: functional, cell-based; conditions: Homo sapiens
[3] = system: HeLa; experiment: Anti-proliferative activity against HeLa cells; assay type: functional, cell-based; conditions: Homo sapiens
[4] = system: HeLa; experiment: Ratio of antiproliferative activities (EC50) against HeLa Cells to that with 150 nM doxorubicin; assay type: functional, Homo sapiens
[5] = biological target: T2, Aurora kinase A (Homo sapiens, UniProt O14965); experiment: Inhibition of Aurora kinase A (Aur1)
T2 sequence (O14965 whole entry): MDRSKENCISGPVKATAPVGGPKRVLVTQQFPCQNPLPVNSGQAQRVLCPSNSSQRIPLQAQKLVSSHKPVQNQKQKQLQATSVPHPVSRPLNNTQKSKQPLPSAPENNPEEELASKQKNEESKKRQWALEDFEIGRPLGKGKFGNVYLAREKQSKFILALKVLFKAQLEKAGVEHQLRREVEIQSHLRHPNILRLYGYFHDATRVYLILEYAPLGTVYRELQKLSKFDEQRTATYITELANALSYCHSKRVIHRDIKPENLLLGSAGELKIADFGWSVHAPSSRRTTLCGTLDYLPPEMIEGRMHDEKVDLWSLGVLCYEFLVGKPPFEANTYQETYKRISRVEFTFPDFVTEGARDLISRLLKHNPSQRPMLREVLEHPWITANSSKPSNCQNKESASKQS

[6] = biological target: MAP/microtubule affinity-regulating kinase 3 (Homo sapiens, UniProt P27448); experiment: Inhibition of MAP/microtubule affinity-regulating kinase 3 (cTak1)
MAP/microtubule affinity-regulating kinase 3, sequence (P27448 whole entry): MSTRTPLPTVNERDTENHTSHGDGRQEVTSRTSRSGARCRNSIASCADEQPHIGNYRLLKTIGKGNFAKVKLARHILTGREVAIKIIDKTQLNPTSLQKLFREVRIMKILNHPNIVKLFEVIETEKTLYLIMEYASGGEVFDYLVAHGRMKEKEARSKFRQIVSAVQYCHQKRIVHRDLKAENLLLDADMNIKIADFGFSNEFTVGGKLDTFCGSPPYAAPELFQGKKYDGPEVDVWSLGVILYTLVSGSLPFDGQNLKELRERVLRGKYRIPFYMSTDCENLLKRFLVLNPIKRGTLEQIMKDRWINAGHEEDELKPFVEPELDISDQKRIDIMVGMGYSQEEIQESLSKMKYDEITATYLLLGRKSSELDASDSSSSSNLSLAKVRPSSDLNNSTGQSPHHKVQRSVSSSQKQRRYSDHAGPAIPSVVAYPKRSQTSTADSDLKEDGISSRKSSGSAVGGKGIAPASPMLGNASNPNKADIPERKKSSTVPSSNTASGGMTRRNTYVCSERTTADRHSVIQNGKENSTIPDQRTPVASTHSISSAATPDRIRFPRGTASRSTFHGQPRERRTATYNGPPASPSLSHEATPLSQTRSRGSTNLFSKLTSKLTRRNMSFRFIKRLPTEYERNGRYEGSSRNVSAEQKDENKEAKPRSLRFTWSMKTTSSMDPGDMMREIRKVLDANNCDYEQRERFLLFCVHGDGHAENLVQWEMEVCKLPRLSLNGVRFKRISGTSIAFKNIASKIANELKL

[7] = Inhibition of Protein kinase A (PKA)
[8] = biological target: Mitogen-activated protein kinase 1 (Homo sapiens, UniProt P28482); experiment: Inhibition of Extracellular signal-regulated kinase 2 (ERK2)
Mitogen-activated protein kinase 1, sequence (P28482 whole entry): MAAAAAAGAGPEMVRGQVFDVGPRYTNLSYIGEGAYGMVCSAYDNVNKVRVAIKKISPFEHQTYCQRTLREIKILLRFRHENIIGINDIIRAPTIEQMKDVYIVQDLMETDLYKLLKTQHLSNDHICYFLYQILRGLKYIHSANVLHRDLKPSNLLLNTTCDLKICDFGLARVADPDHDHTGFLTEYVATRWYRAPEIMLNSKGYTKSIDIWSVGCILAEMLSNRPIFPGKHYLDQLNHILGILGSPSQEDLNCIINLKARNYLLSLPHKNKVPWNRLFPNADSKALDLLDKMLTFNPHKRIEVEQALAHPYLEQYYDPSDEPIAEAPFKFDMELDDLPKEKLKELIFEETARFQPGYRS

[9] = biological target: RAC-alpha serine/threonine-protein kinase (Homo sapiens, UniProt P31749); experiment: Inhibition of Protein kinase B, alpha (Akt1)
RAC-alpha serine/threonine-protein kinase, sequence (P31749 whole entry): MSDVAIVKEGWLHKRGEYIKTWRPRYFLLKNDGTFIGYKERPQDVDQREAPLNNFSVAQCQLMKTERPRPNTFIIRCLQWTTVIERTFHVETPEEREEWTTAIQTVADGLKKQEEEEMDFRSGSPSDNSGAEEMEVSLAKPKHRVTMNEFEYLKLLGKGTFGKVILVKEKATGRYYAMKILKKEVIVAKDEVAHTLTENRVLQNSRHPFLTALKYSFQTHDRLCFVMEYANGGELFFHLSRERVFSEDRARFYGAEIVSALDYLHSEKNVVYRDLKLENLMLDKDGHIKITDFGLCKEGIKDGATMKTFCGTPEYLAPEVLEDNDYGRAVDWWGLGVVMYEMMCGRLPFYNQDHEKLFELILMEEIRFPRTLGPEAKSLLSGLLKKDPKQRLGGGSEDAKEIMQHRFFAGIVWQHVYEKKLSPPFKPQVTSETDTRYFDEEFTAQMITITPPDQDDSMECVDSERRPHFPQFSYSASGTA

[10] = biological target: T3, Serine/threonine-protein kinase Sgk1 (Homo sapiens, UniProt O00141); experiment: Inhibition of Serum/glucocorticoid regulated kinase (SGK)
T3 sequence (O00141 whole entry): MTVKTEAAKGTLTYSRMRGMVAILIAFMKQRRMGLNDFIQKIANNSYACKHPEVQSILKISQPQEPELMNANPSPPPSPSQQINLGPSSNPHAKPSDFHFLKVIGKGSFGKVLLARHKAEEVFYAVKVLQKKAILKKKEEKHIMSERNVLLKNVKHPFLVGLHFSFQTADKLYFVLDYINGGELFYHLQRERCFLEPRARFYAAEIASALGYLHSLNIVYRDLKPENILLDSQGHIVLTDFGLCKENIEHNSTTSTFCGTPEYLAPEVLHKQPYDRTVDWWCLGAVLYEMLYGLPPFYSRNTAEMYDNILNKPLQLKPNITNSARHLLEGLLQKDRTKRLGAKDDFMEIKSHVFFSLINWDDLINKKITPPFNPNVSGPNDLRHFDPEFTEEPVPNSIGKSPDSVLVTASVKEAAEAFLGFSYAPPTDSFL

[11] = biological target: Protein kinase C delta type (Homo sapiens, UniProt Q05655); experiment: Inhibition of Protein kinase C delta (PKCdelta)
Protein kinase C delta type, sequence (Q05655 whole entry): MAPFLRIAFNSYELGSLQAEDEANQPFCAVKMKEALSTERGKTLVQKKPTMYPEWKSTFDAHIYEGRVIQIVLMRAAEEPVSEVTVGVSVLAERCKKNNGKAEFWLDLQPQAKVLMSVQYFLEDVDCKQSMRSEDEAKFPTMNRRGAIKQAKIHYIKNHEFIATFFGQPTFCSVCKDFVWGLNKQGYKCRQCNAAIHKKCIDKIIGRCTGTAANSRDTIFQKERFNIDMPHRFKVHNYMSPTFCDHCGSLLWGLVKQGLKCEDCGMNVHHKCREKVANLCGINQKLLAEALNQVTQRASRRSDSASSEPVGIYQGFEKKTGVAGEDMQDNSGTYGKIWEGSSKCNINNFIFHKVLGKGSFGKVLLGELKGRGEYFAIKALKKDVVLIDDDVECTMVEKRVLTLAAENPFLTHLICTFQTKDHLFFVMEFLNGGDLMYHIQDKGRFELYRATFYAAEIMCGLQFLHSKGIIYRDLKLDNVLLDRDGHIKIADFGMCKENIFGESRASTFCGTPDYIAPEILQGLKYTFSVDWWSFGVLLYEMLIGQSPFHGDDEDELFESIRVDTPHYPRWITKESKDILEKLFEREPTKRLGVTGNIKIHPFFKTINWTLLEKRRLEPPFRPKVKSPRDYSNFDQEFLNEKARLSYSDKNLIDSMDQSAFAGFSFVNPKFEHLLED

[12] = Inhibition of Protein kinase C gamma (PKCgamma)
[13] = biological target: Cyclin-dependent kinase 1 (Homo sapiens, UniProt P06493); experiment: Inhibition of Serine/threonine kinase Cdc2 (Cdc2)
Cyclin-dependent kinase 1, sequence (P06493 whole entry): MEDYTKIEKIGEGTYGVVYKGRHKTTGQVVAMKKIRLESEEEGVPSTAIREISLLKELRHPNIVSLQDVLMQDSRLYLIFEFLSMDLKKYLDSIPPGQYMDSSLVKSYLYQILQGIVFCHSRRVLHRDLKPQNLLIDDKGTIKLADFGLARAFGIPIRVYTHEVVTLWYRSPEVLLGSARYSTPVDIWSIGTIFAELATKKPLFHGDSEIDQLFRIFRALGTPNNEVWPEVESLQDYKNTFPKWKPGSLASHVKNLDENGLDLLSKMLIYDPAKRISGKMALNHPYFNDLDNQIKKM

[14] = biological target: Serine/threonine-protein kinase Chk2 (Homo sapiens, UniProt O96017); experiment: Inhibition of Serine/threonine-protein kinase Chk2
Serine/threonine-protein kinase Chk2, sequence (O96017 whole entry): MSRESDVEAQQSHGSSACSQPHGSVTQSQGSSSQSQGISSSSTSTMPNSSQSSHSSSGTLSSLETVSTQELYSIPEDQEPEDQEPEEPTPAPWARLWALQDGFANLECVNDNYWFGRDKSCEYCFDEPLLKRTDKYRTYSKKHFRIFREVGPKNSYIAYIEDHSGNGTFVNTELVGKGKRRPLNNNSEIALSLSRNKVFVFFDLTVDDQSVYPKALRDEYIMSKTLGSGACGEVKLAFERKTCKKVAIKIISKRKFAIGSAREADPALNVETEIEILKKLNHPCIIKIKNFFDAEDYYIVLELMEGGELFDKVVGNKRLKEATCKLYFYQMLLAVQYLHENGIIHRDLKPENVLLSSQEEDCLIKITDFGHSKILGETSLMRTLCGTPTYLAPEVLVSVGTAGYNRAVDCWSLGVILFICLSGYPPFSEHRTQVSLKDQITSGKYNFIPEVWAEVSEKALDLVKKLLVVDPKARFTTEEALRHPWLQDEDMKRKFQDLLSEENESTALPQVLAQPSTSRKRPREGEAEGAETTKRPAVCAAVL

[15] = system: SW-620; experiment: Concentration required to inhibit growth of SW620 (human colon cancer) cells; assay type: functional, cell-based
[16] = system: SW-620; experiment: Concentration required to inhibit growth of SW620 (human colon cancer) cells in the presence of 10 uM of Compound 2e; assay type: functional, cell-based

Compound | IC50 [1] | EC50 [2] | EC50 [3] | IC50 [5] | IC50 [6] | IC50 [7] | IC50 [8] | IC50 [9] | IC50 [10] | IC50 [11] | IC50 [12] | IC50 [13] | IC50 [14] | Ratio [4] | EC50 [15] | EC50 [16]
CN1CCC(Oc2ccc(Cl)cc2NC(=O)Nc2cnc(C#N)cn2)CC1 | 0.01 µM | 10 µM | 10.4 µM | – | – | – | – | – | – | – | – | – | – | 1 | – | –
CC(CN(C)C)Oc1ccc(Cl)cc1NC(=O)Nc1cnc(C#N)cn1 (stereo unspecified) | 0.008 µM | 0.4 µM | 1.5 µM | 3.23 µM | 1.51 µM | > 50 µM | > 50 µM | > 50 µM | > 50 µM | 50 µM | 50 µM | > 50 µM | 2.8 µM | 3.7 | – | –
CC[C@@]1(O)C(=O)OCc2c1cc1n(c2=O)Cc2cc3ccccc3nc2-1 [CAMPTOTHECIN] | – | – | – | – | – | – | – | – | – | – | – | – | – | – | 0.0012 µM | 0.00015 µM

More lines, in order of falling IC50 [1], values ahead:

IC50 [1] | EC50 [2] | EC50 [3] | IC50 [5] | IC50 [6] | IC50 [7] | IC50 [8] | IC50 [9] | IC50 [10] | IC50 [11] | IC50 [12] | IC50 [13] | IC50 [14] | Compound | Ratio [4] | EC50 [15] | EC50 [16]
0.007 µM | 2.6 µM | > 59 µM | > 10 µM | > 10 µM | > 50 µM | > 50 µM | 9.21 µM | > 50 µM | > 50 µM | > 50 µM | > 50 µM | – | CC1(COc2ccc(Cl)cc2NC(=O)Nc2cnc(C#N)cn2)COC1 | >22 | – | –
0.005 µM | 37 µM | > 59 µM | – | – | – | – | – | – | – | – | – | – | N#Cc1cnc(NC(=O)Nc2cc(Cl)ccc2OC2CCOCC2)cn1 | >1 | – | –
0.003 µM | 5 µM | 18.7 µM | – | – | – | – | – | – | – | – | – | – | N#Cc1cnc(NC(=O)Nc2cc(Cl)ccc2OC2CCOC2)cn1 (stereo unspecified) | 3.6 | – | –
